For the assay, the target named is T1, TLR7 (Homo sapiens, UniProt Q9NYK1).
T1 construct: expressed in transfected cells; host or cells: HEK cells carrying TLR7 and an NF-kB reporter read with Steady-Glo
T1 sequence (Q9NYK1 27-1049): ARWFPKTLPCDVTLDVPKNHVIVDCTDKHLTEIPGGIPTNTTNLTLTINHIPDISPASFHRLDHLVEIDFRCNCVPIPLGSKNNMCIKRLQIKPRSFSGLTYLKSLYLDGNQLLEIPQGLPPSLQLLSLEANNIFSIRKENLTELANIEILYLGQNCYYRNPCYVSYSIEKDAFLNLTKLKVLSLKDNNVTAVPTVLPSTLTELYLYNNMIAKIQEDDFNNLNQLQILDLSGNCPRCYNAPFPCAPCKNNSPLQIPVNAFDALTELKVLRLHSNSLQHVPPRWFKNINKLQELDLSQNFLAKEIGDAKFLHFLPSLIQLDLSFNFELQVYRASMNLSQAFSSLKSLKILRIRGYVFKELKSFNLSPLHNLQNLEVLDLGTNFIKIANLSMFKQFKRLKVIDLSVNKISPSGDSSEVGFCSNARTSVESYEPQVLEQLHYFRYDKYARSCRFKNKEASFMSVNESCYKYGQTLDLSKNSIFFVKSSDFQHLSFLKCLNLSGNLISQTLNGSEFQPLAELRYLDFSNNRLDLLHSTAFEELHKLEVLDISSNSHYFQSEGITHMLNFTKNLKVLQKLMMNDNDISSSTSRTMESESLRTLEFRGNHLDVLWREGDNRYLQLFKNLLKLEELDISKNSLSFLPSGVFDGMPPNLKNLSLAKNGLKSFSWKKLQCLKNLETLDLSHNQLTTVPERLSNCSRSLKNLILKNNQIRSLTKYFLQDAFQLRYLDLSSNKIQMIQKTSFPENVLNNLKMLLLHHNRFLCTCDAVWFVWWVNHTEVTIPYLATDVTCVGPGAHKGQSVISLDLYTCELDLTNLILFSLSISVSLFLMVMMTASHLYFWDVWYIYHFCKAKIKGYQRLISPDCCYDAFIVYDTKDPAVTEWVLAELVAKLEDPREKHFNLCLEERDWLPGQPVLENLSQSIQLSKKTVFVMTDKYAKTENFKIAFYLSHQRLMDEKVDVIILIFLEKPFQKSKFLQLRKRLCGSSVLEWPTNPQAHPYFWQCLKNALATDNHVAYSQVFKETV
Put plainly: HEK Cell Assay (TLR7/NFKb HEK reporter cells, Steady-Glo). It is filed as cell-based. The note with it: compound 30 min, then R*48 agonist 5 hours, Steady-Glo readout, read-out: Potency. The procedure:
Example 32: HEK Cell Assay
Into 384 CulturePlates (Corning 3707) was placed 5000 c/w of TLR7/NFKb HEK cells in 30 uL DMEM without Phenil red (gibco #31053) and 10% i.a. FCS and 2 mM L-ZGLutamin. The cells were incubated for 24 h at 37 degrees Celsius, 10% carbon dioxide and 90% relative humidity, 3 uL of controls, standards, and compounds were dispensed to wells, incubated for 30 min then 3 uL of R*48 agonist in 20 mM Hepes was added. After incubation for 5 hours, it was allowed to stand at room temperature for 15 min, 10 uL of Steady-Glo substrate reagent was added and shake assay plate for 5 min at 1500 rpm. The assay plate was allowed to sit for 30 min at room temperature and then read plate on EnVision.

Each structure is given as a SMILES string.

As for `C[C@H]1C[C@@H](NC(=O)CC2CC2(F)F)C[C@@H](c2ccc(C#N)c3nccnc23)C1` (mixture of isomers) [Compound 156, N-[(cis-1,3,5)-3-(8-cyanoquinoxalin-5-yl)-5-methylcyclohexyl]-2-(2,2-difluorocyclopropyl)acetamide], the IC50 is 1 to 20 µM. Consider `C[C@@H]1C[C@H](c2ccc(C(F)(F)F)c3ncccc23)CN(C(=O)CC2CCN(C)CC2)C1` (racemic) [Compound 4, cis-2-(1-Methyl-piperidin-4-yl)-1-[3-methyl-5-(8-trifluoromethyl-quinolin-5-yl)-piperidin-1-yl]-ethanone], for which the IC50 is < 1 µM. `CC(C)N1CCC(CC(=O)N2C[C@H](C)C[C@H](c3ccc(C#N)c4ncccc34)C2)CC1` (racemic) [Compound 19]: the IC50 is < 1 µM.

`C[C@@H]1C[C@H](c2ccc(C#N)c3ncccc23)CN(C(=O)CN2CC3CCC2CN3)C1` (mixture of isomers) [Compound 116, 5-[(3R,5R)-1-(2-2,5-Diaza-bicyclo[2.2.2]oct-2-yl-acetyl)-5-methyl-piperidin-3-yl]-quinoline-8-carbonitrile]: the IC50 is < 1 µM. On to `C[C@H]1C[C@@H](N)C[C@@H](c2ccc(C#N)c3nccnc23)C1` (racemic) [Compound 120, 8-((S,3R,5R)-3-amino-5-methylcyclohexyl) quinoxaline-5-carbonitrile], for which the IC50 is < 1 µM. Turning to `C[C@H]1C[C@@H](NC(=O)CC(C)(C)C)C[C@@H](c2ccc(C#N)c3nccnc23)C1` (racemic) [Compound 129, N-[(cis-1,3,5)-3-(8-cyanoquinoxalin-5-yl)-5-methylcyclohexyl]-3,3-dimethylbutanamide], the IC50 was < 1 µM. In the case of `C[C@H]1C[C@@H](NC(=O)CC(C)(C)C)C[C@H](c2ccc(C#N)c3nccnc23)C1` (racemic) [Compound 130, N-[(1,cis-3,trans-5,cis)-3-(8-cyanoquinoxalin-5-yl)-5-methylcyclohexyl]-3,3-dimethylbutanamide], the IC50 was in the range of 1 to 20 µM. As to `C[C@H]1C[C@@H](NC(=O)CN(C)C)C[C@@H](c2ccc(C#N)c3nccnc23)C1` (racemic) [Compound 131, N-[(cis-1,3,5)-3-(8-cyanoquinoxalin-5-yl)-5-methylcyclohexyl]-2-(dimethylamino)acetamide], the IC50 is < 1 µM. To `C[C@H]1C[C@@H](NC(=O)CN(C)C)C[C@H](c2ccc(C#N)c3nccnc23)C1` (racemic) [Compound 132, N-[(1,cis-3,trans-5,cis)-3-(8-cyanoquinoxalin-5-yl)-5-methylcyclohexyl]-2-(dimethylamino)acetamide] belongs 1 to 20 µM. In the case of `C[C@H]1C[C@@H](NC(=O)[C@@H](N)C(F)(F)F)C[C@@H](c2ccc(C#N)c3nccnc23)C1` (racemic) [Compound 143, (2R)-2-amino-N-((cis-1,3,5)-3-(8-cyanoquinoxalin-5-yl)-5-methylcyclohexyl)-3,3,3-trifluoropropanamide], the IC50 lay in the range of 1 to 20 µM. Regarding `C[C@H]1C[C@@H](NC(=O)[C@H](N)C(F)(F)F)C[C@@H](c2ccc(C#N)c3nccnc23)C1` (racemic) [Compound 144, (2S)-2-amino-N-((cis-1,3,5)-3-(8-cyanoquinoxalin-5-yl)-5-methylcyclohexyl)-3,3,3-trifluoropropanamide], the IC50 was 1 to 20 µM.

For the compound `C[C@H]1C[C@@H](NC(=O)[C@H](N)C(F)(F)F)C[C@H](c2ccc(C#N)c3nccnc23)C1` (racemic) [Compound 145, (2R)-2-amino-N-((1,cis-3cis-5,trans)-3-(8-cyanoquinoxalin-5-yl)-5-methylcyclohexyl)-3,3,3-trifluoropropanamide], the IC50 lay within 1 to 20 µM.

As for `C[C@H]1C[C@@H](NC(=O)[C@@H](N)C(F)(F)F)C[C@H](c2ccc(C#N)c3nccnc23)C1` (racemic) [Compound 146, (2S)-2-amino-N-((1,cis-3cis-5,trans)-3-(8-cyanoquinoxalin-5-yl)-5-methylcyclohexyl)-3,3,3-trifluoropropanamide], the IC50 is 1 to 20 µM.

For `COCCN[C@@H]1C[C@H](C)C[C@@H](c2ccc(C(F)(F)F)c3ncccc23)C1` (racemic) [Compound 151, (1,trans-3,trans-5,cis)-N-(2-methoxyethyl)-3-methyl-5-(8-(trifluoromethyl)quinolin-5-yl)cyclohexanamine], the IC50 was in the range of 1 to 20 µM. In the case of `C[C@H]1C[C@@H](NC(=O)CN2CCCCC2)C[C@@H](c2ccc(C#N)c3nccnc23)C1` (racemic) [Compound 157, N-[(cis-1,3,5)-3-(8-cyanoquinoxalin-5-yl)-5-methylcyclohexyl]-2-(piperidin-1-yl)acetamide], the IC50 was < 1 µM. To `C[C@H]1C[C@@H](NC(=O)CN2CCN(C)CC2)C[C@@H](c2ccc(C#N)c3nccnc23)C1` (racemic) [Compound 158, N-[(cis-1,3,5)-3-(8-cyanoquinoxalin-5-yl)-5-methylcyclohexyl]-2-(4-methylpiperazin-1-yl)acetamide] belongs < 1 µM; to `COCCN[C@@H]1C[C@H](C)C[C@H](c2ccc(F)c3nccnc23)C1` (racemic) [Compound 159, (cis-1,3,5)-3-(8-fluoroquinoxaline-5-yl)-N-(2-methoxyethyl)-5-methylcyclohexan-1-amine], 1 to 20 µM.

Consider `C[C@@H]1C[C@H](c2ccc(C(F)(F)F)c3ncccc23)CN(C)C1` (relative stereo) [Compound 5], for which the IC50 is > 20 µM. As for `C[C@@H]1C[C@@H](c2ccc(C(F)(F)F)c3ncccc23)CN(C)C1` (relative stereo) [Compound 6], the IC50 was > 20 µM. `C[C@@H]1C[C@H](c2ccc(C(F)(F)F)c3ncccc23)CN(CCO)C1` (relative stereo) [Compound 7]: the IC50 was > 20 µM. In the case of `C[C@@H]1C[C@@H](c2ccc(C(F)(F)F)c3ncccc23)CN(CCO)C1` (relative stereo) [Compound 8], the IC50 was > 20 µM. Take `CC(=O)N1C[C@@H](C)C[C@H](c2ccc(C(F)(F)F)c3ncccc23)C1` (relative stereo) [Compound 9, trans-1-[3-Methyl-5-(8-trifluoromethyl-quinolin-5-yl)-piperidin-1-yl]-ethanone]: the IC50 was > 20 µM. To `CC(=O)N1C[C@H](C)C[C@H](c2ccc(C(F)(F)F)c3ncccc23)C1` (relative stereo) [Compound 10, cis-1-[3-Methyl-5-(8-trifluoromethyl-quinolin-5-yl)-piperidin-1-yl]-ethanone] belongs > 20 µM; to `C[C@@H]1C[C@@H](c2ccc(C(F)(F)F)c3ncccc23)CN(C(=O)CCn2cccn2)C1` (relative stereo) [Compound 13], > 20 µM; to `C[C@@H]1C[C@H](c2ccc(C(F)(F)F)c3ncccc23)CN(C(=O)Cn2cccn2)C1` (relative stereo) [Compound 14], > 20 µM. In the case of `C[C@@H]1C[C@@H](c2ccc(C(F)(F)F)c3ncccc23)CN(C(=O)Cn2cccn2)C1` (relative stereo) [Compound 15], the IC50 was > 20 µM.

Take `C[C@@H]1C[C@H](c2ccc(C(F)(F)F)c3ncccc23)CN(C(=O)CN2CCOCC2)C1` (relative stereo) [Compound 16]: the IC50 was > 20 µM. For `C[C@@H]1C[C@H](c2ccc(C#N)c3ncccc23)CN(C(=O)Cc2cccnc2)C1` (relative stereo) [Compound 20], the IC50 was > 20 µM. On to `C[C@@H]1C[C@H](c2ccc(C#N)c3ncccc23)CN(C(=O)CCc2cccnc2)C1` (relative stereo) [Compound 24], for which the IC50 was > 20 µM. On to `C[C@@H]1C[C@H](c2ccc(C#N)c3ncccc23)CN(C(=O)CC(F)(F)F)C1` (relative stereo) [Compound 26], for which the IC50 is > 20 µM. To `C[C@@H]1C[C@H](c2ccc(C#N)c3ncccc23)CN(C(=O)CC2CC2)C1` (relative stereo) [Compound 28, Cis 5-[1-(2-Cyclopropyl-acetyl)-5-methyl-piperidin-3-yl]-quinoline-8-carbonitrile] belongs 1 to 20 µM; to `C[C@@H]1C[C@H](c2ccc(C#N)c3ncccc23)CN(C(=O)CN2CCN(C)CC2)C1` (relative stereo) [Compound 29], < 1 µM.

For the origin of these results see US11512069B2, “TLR7/8 antagonists and uses thereof” (Merck Patent GmbH, priority 2016, dated 2022).
